The results in this text go back to publication PMC11885754, “Engineered phenylalanine hydroxylase coupled with an effective cofactor synthesis and regeneration system for high-yield production of 5-hydroxytryptophan” (Bioresources and Bioprocessing, 2025).

The experiment deals with T1, XcPAH (Xanthomonas campestris, UniProt Q8PE27).
T1 construct: gene pah; full length 296 aa, synthesized gene in pET30a (BamHI/XhoI) co-expressed with CvPCD and EcFolM in E. coli BL21(DE3)-derived strain TRP1
T1 sequence (Q8PE27 1-296): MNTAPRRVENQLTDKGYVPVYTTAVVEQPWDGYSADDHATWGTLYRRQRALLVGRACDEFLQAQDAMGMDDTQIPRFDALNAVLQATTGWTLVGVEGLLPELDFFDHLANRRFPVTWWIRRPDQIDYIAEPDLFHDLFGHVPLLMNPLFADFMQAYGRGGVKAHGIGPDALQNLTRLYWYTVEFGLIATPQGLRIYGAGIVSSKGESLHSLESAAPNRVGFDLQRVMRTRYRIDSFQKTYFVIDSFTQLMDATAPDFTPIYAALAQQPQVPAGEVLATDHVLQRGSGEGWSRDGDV
The experiment is described as follows: whole-cell conversion of L-Phe to L-Tyr, HPLC. The class given is cell-based. The settings on record: E. coli TRP1 cells, 10 mM L-Phe, endogenous MH4 with CvPCD-EcFolM regeneration, 25 °C, 24 h, pH about 7.0.

With `N[C@@H](Cc1ccccc1)C(=O)O` [L-Phe], the “whole-cell conversion of L-Phe to L-Tyr, HPLC” value was “(TRP1-XC1 and TRP1-CT1) were capable of converting L-Phe into L-Tyr”.
